The values that follow come from publication PMC4600319 (Malaria Journal, 2015).

Structures are written as SMILES. “And” between values parts separate entries of the source, which are not always exact repeats. Equal values may be shown once. Read-outs that look alike come from different tables or passages of the source.

This series is described as follows: Open-label, three-way, sequential, cross-over pharmacokinetic interaction study, plasma, non-compartmental analysis. It counts as in vivo, human (healthy Thai adults). To be noted: for AUC0–12h / Tmax / Cmax / AUC(0-inf) / Vd/F / half-life / AUC(0-t): plasma; for AUC0–12h / Tmax / Cmax / AUC(0-inf) / Vd/F / half-life / AUC(0-t) / CL/F: median (95 % CI); for Vd/F: read-out: Vz/F; for half-life: read-out: t1/2z (converted); for t1/2z GMR (90 % CI): geometric mean ratio. The method, then: This was an open-label, three-way, sequential, cross-over, pharmacokinetic study in healthy adult volunteers. […] Written informed consent for study participation was obtained from each subject before study. […] Consenting adults were screened for eligibility and a physical examination, electrocardiogram (ECG), and laboratory safety tests (haematology, biochemistry, urinalysis, and pregnancy status) were performed. Figure 1 summarizes the study design. The pharmacokinetic sampling was performed sequentially on three occasions. […] Ltd., China). Mefloquine doses were given as three tablets on Day 1 and two tablets on Day 2 (250 mg mefloquine per tablet, manufactured by Atlantic Pharmaceutical Ltd., China). There was a 2-months wash-out period between Period 1 and Period 2. Period 2: subjects received oral doses of LPV/r (400/100 mg), twice daily, for 14 days (27 doses). There was no washout between Period 2 and Period 3. […] Immediately after collection, all blood samples were centrifuged (1200×g, 10 min) and the plasma samples were stored at -80 °C until analysis. […] University. […] An Agilent 1260 LC system (Agilent Technologies, CA, USA) coupled with an API 5000 triple quadrupole mass spectrometer (Applied Biosystems/MDS SCIEX, Foster City, USA), with a TurboVTM ionization source (TIS) interface operated in the positive ion mode, was used for the multiple reaction monitoring LC-MS/MS analysis. […] Nitrogen gas was supplied from an AB-3G (Peak Scientific, Inchinnan, UK). […] Chromatographic separation was performed using an […] XDB C18 column (5 μm, 4.6 mm × 150 mm; Thermo Fisher Scientific, MA, USA) protected with an Eclipse XDB-C8 guard column (Thermo Electron Corporation, MA, USA). The gradient mobile phase consisted of a mixture of 10 mM ammonium acetate with 0.1 % glacial acetic acid and acetonitrile running at a flow rate of 0.7 mL/min. Total run time was 12 min. […] Measurement of plasma concentrations of mefloquine was performed using high performance liquid chromatography (HPLC) according to the method of Karbwang et al. with modifications. Chromatographic separation was performed on a Hypersil ODS column (5 μm, 4.6 mm × 250 mm; Thermo Fisher Scientific, MA, USA) protected with an Eclipse XDB-C8 guard column (Thermo Electron Corporation, MA, USA). […] The UV detector was set at the wavelength of 220 nm. […] This laboratory participates in the NIAID Clinical Pharmacology Quality Assurance Programme Proficiency Testing. Pharmacokinetic parameters were determined using a non-compartmental analysis using WinNonLin software (version 6.3, […], USA). […] The Cmax (maximum concentration); tmax (time of maximum concentration) were determined by direct inspection of the plasma concentration-time data. […] The extrapolated AUC from the last sampling time to infinity was estimated from Ct/elimination rate constant (lz). lz was calculated from at least five concentration-time points of elimination phase. Apparent oral clearance (CL/F) was calculated as dose/AUC0-∞. Volume of distribution (Vz/F) was calculated as CL/F/lz, and the terminal half-life (t1/2z) was calculated as 0.693/lz. […] Statistical analysis of the data was performed using SPSS version 16.0 (Gorichem, The Netherlands). Pharmacokinetic parameters are presented as median and 95 % confidence intervals (95 % CI). […] Comparison of the frequency of subjects with adverse events between the two groups was performed using a Chi-square test. Statistical significance level was set at a = 0.05 for all tests.

The mark [1] stands for this setting: LPV/r 400/100 mg twice daily alone (Period 2).
Setting [2] is: LPV/r with 3-day artesunate-mefloquine (Period 3).
Where [3] appears, read: both sexes, human, oral, LPV/r 400/100 mg twice daily alone (Period 2), read-out: Cmax.
The mark [4] stands for this setting: both sexes, human, oral, LPV/r 400/100 mg twice daily alone (Period 2).
[5] abbreviates: both sexes, human, oral, LPV/r with 3-day artesunate-mefloquine (Period 3), read-out: AUC0–12h.
[6] abbreviates: both sexes, human, oral, LPV/r with 3-day artesunate-mefloquine (Period 3).
Setting [7] is: in the presence of artesunate-mefloquine vs LPV/r alone.
The mark [8] stands for this setting: with artesunate-mefloquine vs LPV/r alone.
Setting [9] is: 750 and 500 mg 24 h apart vs previous study in healthy Thai subjects, 750 and 500 mg 6 h apart (ref 47, 48).
Where [10] appears, read: both sexes, human, oral, 3-day artesunate-mefloquine with LPV/r 400/100 mg twice a day (Period 3), read-out: tmax.
The mark [11] stands for this setting: both sexes, human, oral, 3-day artesunate-mefloquine alone (Period 1).
Setting [12] is: both sexes, human, oral, 3-day artesunate-mefloquine with LPV/r (Period 3), read-out: Cmax.
Where [13] appears, read: both sexes, human, oral, 3-day artesunate-mefloquine with LPV/r (Period 3).
Where [14] appears, read: both sexes, human, po, 3-day artesunate-mefloquine alone (Period 1), oral, read-out: Cmax.
The mark [15] stands for this setting: both sexes, human, 3-day artesunate-mefloquine alone (Period 1), oral, read-out: tmax.
[16] abbreviates: in the presence of LPV/r vs alone.

As to `Cc1cccc(C)c1OCC(=O)N[C@@H](Cc1ccccc1)[C@@H](O)C[C@H](Cc1ccccc1)NC(=O)[C@H](C(C)C)N1CCCNC1=O` [Lopinavir, lopinavir], under setting [1], the “AUC0–12h” value is given as 103.32 (82.62, 124.01) μg h/mL and the Tmax is 4.0 (3.1, 4.8) h. In addition, under setting [2], the Cmax is 9.62 (7.99, 11.24) μg/mL. In addition, the Cmax under setting [3] was 12400 ng/mL. Further, under setting [4], the AUC(0-inf) (commonly the area under the concentration-time curve extrapolated to infinity) turned out to be 229 µg·h/mL, the Vd/F worked out at 0.45 L/kg and the half-life was 9.8 h. The AUC(0-t) under setting [5] turned out to be 90.5 µg·h/mL. For the same molecule, under setting [6], the total exposure AUC(0-inf) stood at 130 µg·h/mL, the Vd/F amounted to 0.53 L/kg and the half-life is 6.6 h. The “90 % CI of the GMR of Cmax vs bioequivalent range of 0.8-1.25” value (“90 % CI of the GMR of Cmax” below) (combination vs alone) is on record as “outside the acceptable bioequivalent range”. In addition, under setting [7], the “decrease in Cmax” value is 22% and 22.1%; the “increase in CL/F” value is listed as 75.4%. Besides, where the note is “in vivo”, the “extrapolated AUC from the last blood sampling time to infinity (AUCt−∞)” value (“extrapolated AUC” below) is “less than 5%” and the “inter-individual variability of plasma concentrations” value fell in the range of 50.6 to 127.6%. Further, the “t1/2z GMR (90 % CI)” value under setting [8] is 0.71 (0.45, 1.13).
As to `CC(C)c1nc(CN(C)C(=O)N[C@H](C(=O)N[C@@H](Cc2ccccc2)C[C@H](O)[C@H](Cc2ccccc2)NC(=O)OCc2cncs2)C(C)C)cs1` [Ritonavir, ritonavir], under setting [1], the “AUC0–12h” value was 8.11 (5.71, 10.50) μg h/mL; the Tmax is recorded as 4.0 (3.1, 4.8) h; the CL/F was 9.27 (4.74, 13.80) L/h. Also, under setting [2], the Tmax is listed as 4.0 (3.1, 4.8) h and the CL/F was 21.24 (8.71, 33.77) L/h. Under setting [3], the Cmax is 1530 ng/mL. Under setting [4], the AUC(0-inf) was found to be 10.8 µg·h/mL, the Vd/F was determined as 0.97 L/kg and the half-life was 4.3 h. The AUC(0-t) under setting [5] is 4.49 µg·h/mL. Where the note is “both sexes, human, oral, LPV/r with 3-day artesunate-mefloquine (Period 3), read-out: Cmax”, the Cmax is 680 ng/mL. Moreover, under setting [6], the AUC(0-inf) came to 4.71 µg·h/mL, the Vd/F turned out to be 1.75 L/kg and the half-life is 3.7 h. Where the note is “combination vs alone”, the “90 % CI of the GMR of AUC0−12h vs bioequivalent range of 0.8-1.25” value is listed as “outside the acceptable bioequivalent range”, the “90 % CI of the GMR of AUC0−∞ vs bioequivalent range of 0.8-1.25” value is recorded as “outside the acceptable bioequivalent range” and the “90 % CI of the GMR of Cmax” value is “outside the acceptable bioequivalent range”. Moreover, under setting [7], the “decrease in AUC0–12h” value turned out to be 44.6%, the “decrease in AUC0−∞” value is recorded as 56.3%, the “decrease in Cmax” value was 54.9% and the “increase in CL/F” value is on record as 129.1%. Moreover, the “increase in Vz/F” value under setting [7] came out at 80.4%. In addition, for the setting “in vivo”, the “extrapolated AUC” value is reported as “less than 5%” and the “inter-individual variability of plasma concentrations” value is 21.3 to 62.9%. Besides, under setting [8], the “t1/2z GMR (90 % CI)” value is reported as 0.87 (0.68, 1.11).
For `OC(c1cc(C(F)(F)F)nc2c(C(F)(F)F)cccc12)C1CCCCN1` (centres unmarked) [Mefloquine, mefloquine], where the note is “3-day artesunate-mefloquine alone (Period 1)”, the CL/F is 1.08 (0.78, 1.37) L/h. For the setting “3-day artesunate-mefloquine with LPV/r (Period 3)”, the CL/F was 1.67 (1.03, 2.30) L/h. For the same molecule, under setting [9], the “lower CL/F relative to previous study” value turned out to be 33.4% and the “smaller Vz/F relative to previous study” value is recorded as 40%. For the same molecule, under setting [10], the Tmax came to 33 h. For the setting “both sexes, human, oral, 3-day artesunate-mefloquine alone (Period 1), read-out: AUC0–48h”, the AUC(0-t) was 952 µg·h/mL. In addition, under setting [11], the half-life is 344 h, the AUC(0-inf) was found to be 1160 µg·h/mL and the Vd/F was 9.24 L/kg. Where the note is “both sexes, human, oral, 3-day artesunate-mefloquine with LPV/r (Period 3), read-out: AUC0–48h”, the AUC(0-t) came out at 678 µg·h/mL. In addition, the Cmax under setting [12] was 2340 ng/mL. For the same molecule, under setting [13], the half-life was 336 h, the AUC(0-inf) was determined as 751 µg·h/mL and the Vd/F worked out at 12.8 L/kg. Besides, the Cmax under setting [14] turned out to be 2900 ng/mL. Moreover, the Tmax under setting [15] was 33 h. Also, for the setting “combination vs alone”, the “90 % CI of the GMR of AUC0−168h vs bioequivalent range of 0.8-1.25” value is recorded as “outside the acceptable bioequivalent range”, the “90 % CI of the GMR of AUC0−∞ vs bioequivalent range of 0.8-1.25” value is given as “outside the acceptable bioequivalent range” and the “90 % CI of the GMR of Cmax” value is given as “outside the acceptable bioequivalent range”. Further, under setting [16], the “decrease in AUC0−48h” value came out at 28.7%, the “decrease in AUC0−168h” value was 37.1%, the “decrease in AUC0−∞” value worked out at 35.2% and the “decrease in Cmax” value is listed as 19.3%. Under setting [16], the “increase in CL/F” value turned out to be 54.6%; the “increase in Vz/F” value turned out to be 37.9%; the “reduction in Cmax and systemic exposure” value is 19–37%. Further, for the setting “in vivo”, the “extrapolated AUC” value was “less than 10%” and the “inter-individual variability of plasma concentrations” value was 34.2 to 96.9%. Moreover, the “t1/2z GMR (90 % CI)” value (with LPV/r vs alone) is 1.14 (0.90, 1.45).
Take `C[C@H]1[C@H](OC(=O)CCC(=O)O)O[C@@H]2O[C@@]3(C)CC[C@H]4[C@H](C)CC[C@@H]1[C@@]24OO3` [Artesunate, artesunate]: the Tmax reads like this: under setting [10], 1 h; under setting [15], 1 h. Besides, the AUC(0-t) is, setting by setting: (both sexes, human, oral, 3-day artesunate-mefloquine alone (Period 1), read-out: AUC0–24h) 0.2 µg·h/mL; (both sexes, human, oral, 3-day artesunate-mefloquine with LPV/r (Period 3), read-out: AUC0–24h) 0.24 µg·h/mL. Moreover, the Cmax was determined as 140 ng/mL under setting [12] and 110 ng/mL under setting [14]. Besides, the “90 % CI of the GMR of AUC0−24h vs bioequivalent range of 0.8-1.25” value (combination vs alone) is reported as “outside the acceptable bioequivalent range”. Besides, the “increase in Cmax and systemic exposure” value under setting [16] was 45–80%. For the same molecule, where the note is “in vivo”, the “inter-individual variability in AUC0−24h” value was 54.4%.
